This is an account of results in PubChem BioAssay (NCI).

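The compound was tested at five concentrations on cells cultured in 96-well plates, with a 48-hour exposure period. Here, GI50 denotes the concentration required for 50% inhibition of growth. Definition used: TGI = concentration required for complete inhibition of growth.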

Some test systems named below: SW-620 colon; HCC-2998 colon; SF-268 CNS; TK-10 renal; ACHN renal; HL-60(TB) leukemia; OVCAR-3 ovarian; BT-549 breast; MDA-MB-435; SNB-75 CNS.
Common to all, as to experiment: DTP human tumour cell line panel, 48 h

A word on the TGI: it is the concentration giving total growth inhibition. Low values mean greater sensitivity of the cells, high ones lower sensitivity of the cells. As for `O=C(N/N=C/C=C/c1ccccc1)[C@H](O)[C@@H](O)C(=O)N/N=C/C=C/c1ccccc1`, the TGI in the test with SW-620 colon, in the test with HCC-2998 colon, with SF-268 CNS, in the test on TK-10 renal, in the test on ACHN renal and with HL-60(TB) leukemia was more than 100 µM in each case.

Consider `COc1ccc(CC2CCc3nc(N)nc(N)c3C2)cc1OC` (stereo not given), for which the total growth inhibition concentration (TGI) in the test on SW-620 colon is more than 100 µM; in the test on HCC-2998 colon, more than 47 µM; in the test on OVCAR-3 ovarian, more than 100 µM; with BT-549 breast, 51.7 µM; with MDA-MB-435 it was more than 100 µM; in the test on SF-268 CNS it was more than 29 µM. Also, the total growth inhibition concentration (TGI) in the test on TK-10 renal is more than 100 µM; in the test on ACHN renal, more than 63.1 µM; in the test with SNB-75 CNS it was more than 100 µM; with HL-60(TB) leukemia, more than 100 µM.

Consider `CCN(CCO)C(=O)C1(c2ccccc2)CCCCC1`, for which the total growth inhibition concentration (TGI) in the test on SW-620 colon, with HCC-2998 colon, in the test on OVCAR-3 ovarian, in the test with MDA-MB-435, with SF-268 CNS and in the test on TK-10 renal was more than 10 µM throughout. Moreover, the TGI in the test on ACHN renal, with SNB-75 CNS and with HL-60(TB) leukemia was more than 10 µM in each case.

`C[C@]12CC[C@H](OC(=O)Cc3ccc(N(CCCl)CCCl)cc3)CC1=CC[C@@H]1[C@@H]2CC[C@]2(C)C(=O)CC[C@@H]12`: the TGI in the test with SW-620 colon, in the test with HCC-2998 colon, in the test on OVCAR-3 ovarian, with BT-549 breast, with MDA-MB-435 and in the test on SF-268 CNS was more than 100 µM in each case. Further, the TGI in the test with TK-10 renal, in the test on ACHN renal, in the test on SNB-75 CNS and with HL-60(TB) leukemia was more than 100 µM in each case.

By GI50 is commonly meant the concentration at which growth is held to half of that of the control. Take `OCCCNc1nc(=S)[nH]c2[nH]ncc12`: the GI50 was 44.3 µM with SW-620 colon; 22.3 µM with HCC-2998 colon; 31.4 µM with OVCAR-3 ovarian; 46.8 µM in the test on BT-549 breast; 45.5 µM in the test with MDA-MB-435; 32.7 µM in the test with SF-268 CNS. Besides, the GI50 in the test with TK-10 renal was 33.6 µM; in the test on ACHN renal, 40 µM; in the test on SNB-75 CNS, more than 100 µM; in the test with HL-60(TB) leukemia it was more than 100 µM. For the same compound, the TGI is more than 100 µM in the test on SW-620 colon; more than 100 µM with HCC-2998 colon; more than 100 µM in the test on OVCAR-3 ovarian; more than 100 µM with BT-549 breast; more than 100 µM in the test with MDA-MB-435; 92.2 µM with SF-268 CNS. Besides, the TGI in the test with TK-10 renal, in the test with ACHN renal, in the test with SNB-75 CNS and in the test with HL-60(TB) leukemia was more than 100 µM in each case.
